Measured values taken from patent publication US20220152165A1, “COMBINATION OF NASAL GENE DELIVERY AND ORAL CINNAMIC ACID, OLEAMIDE OR GEMFIBROZIL FOR LYSOSOMAL STOARGE DISORDERS” (Rush University Medical Center, priority 2019, published 2022).

Tested on: Cln2^(−/−) mice
Test: Life span of Cln2^(−/−) mice, animal model of late infantile Batten disease (LINCL)
Format: in vivo
Conditions: n=6
Experimental: For intranasal gene delivery, Cln2^(−/−) mice received 5×10^6 genome copies of Ad-Cln2 in a volume of […] twice a week intranasally (2.5 μl/nostril) starting from two weeks of age for four weeks. For gemfibrozil (gem) treatment, mice received gem (dissolved in 0.1% MeC) orally at a dose of 7.5 mg/kg body weight/day starting from six weeks of age. FIG. 1 describes the percentage of survival is shown by Kaplan-Meier plot.
For intranasal gene delivery, Cln2^(−/−) mice received 5×10^6 genome copies of Ad-Cln2 in a volume of […] twice a week intranasally (2.5 μl/nostril) starting from two weeks of age for four weeks. For gemfibrozil (gem) treatment, mice received gem (dissolved in 0.1% MeC) orally at a dose of 7.5 mg/kg body weight/day starting from six weeks of age. FIG. 2 describes mean survival days. Six mice (n=6) containing 3 males and 3 females were used in each group. ***p<0.001; NS, not significant.
Intranasal gene delivery was examined as a valid option for fatal lysosomal storage disorders. A mouse model of Late Infantile Neuronal Ceroid Lipofuscinosis (LINCL) was used, a rare neurodegenerative disease caused by mutations in the Cln2 gene that leads to deficiency or loss of function of the tripeptidyl peptidase 1 (TPP1) enzyme. […]

SMILES: Cc1ccc(C)c(OCCCC(C)(C)C(=O)O)c1 [gemfibrozil, 5-(2,5-dimethylphenoxy)-2,2-dimethylpentanoic acid]
- lifespan of Cln2^−/− mice (gemfibrozil alone, oral 7.5 mg/kg body weight/day starting from six weeks of age, mice not receiving Ad-Cln2): significantly increased the lifespan
- lifespan of Cln2^−/− mice that received intranasal Ad-Cln2 (oral gemfibrozil 7.5 mg/kg body weight/day after 4 weeks of intranasal Ad-Cln2, compared with Ad-Cln2 alone): did not further increase the lifespan
